Laboratory results published in patent publication US10392397B2, “Heterocyclic thiosemicarbazone derivatives and their therapeutical applications” (NANTBIO, INC., priority 2015, dated 2019).

Legend:
Type in all cases: cell-based
HCC-2998 = assay: SRB growth inhibition, HCC-2998; settings: Homo sapiens, HCC-2998, Colon Cancer, 48 h
Description: (§1) Human tumor cell lines were grown in RPM(1640 medium containing 5% fetal bovine serum and 2 mM L-glutamine. For a typical screening experiment, cells were inoculated into 96 well microtiter plates in 100 μL at plating densities ranging from 5,000 to 40,000 cells/well depending on the doubling time of individual cell lines. After cell inoculation, the microtiter plates were incubated at 37° C., 5% CO2, 95% air and 100% relative humidity for 24 h prior to addition of Compound 3 above.
(§2) After 24 h, two plates of each cell line were fixed in situ with TCA, to represent a measurement of the cell population for each cell line at the time of drug addition (Tz). […]
(§3) Following drug addition, the plates were incubated for an additional 48 h at 37° C., 5% CO2, 95% air, and 100% relative humidity. […] Bound stain was subsequently solubilized with 10 mM trizma base, and the absorbance was read on an automated plate reader at a wavelength of 515 nm. […] Using the seven absorbance measurements [time zero, (Tz), control growth, (C), and test growth in the presence of drug at the five concentration levels (Ti)], the percentage growth was calculated at each of the drug concentrations levels. Percentage growth inhibition was calculated as: [(Ti-Tz)/(C-Tz)]×100 for concentrations for which Ti>/=Tz [(Ti-Tz)/Tz]×100 for concentrations for which Ti<Tz. […]

A549/ATCC = assay: SRB growth inhibition, A549/ATCC; settings: Homo sapiens, Non-Small Cell Lung Cancer, 48 h
Description: as §1, §2, §3

OVCAR-4 = assay: SRB growth inhibition, OVCAR-4; settings: Homo sapiens, OVCAR-4, Ovarian Cancer, 48 h
Description: as §1, §2, §3

RPMI-8226 = assay: SRB growth inhibition, RPMI-8226; settings: Homo sapiens, RPMI-8226, Leukemia, 48 h
Description: as §1, §2, §3

OVCAR-5 = assay: SRB growth inhibition, OVCAR-5; settings: Homo sapiens, OVCAR-5, Ovarian Cancer, 48 h
Description: as §1, §2, §3

DU-145 = assay: SRB growth inhibition, DU-145; settings: Homo sapiens, DU-145, Prostate Cancer, 48 h
Description: as §1, §2, §3

SK-MEL-28 = assay: SRB growth inhibition, SK-MEL-28; settings: Homo sapiens, SK-MEL-28, Melanoma, 48 h
Description: as §1, §2, §3

ACHN = assay: SRB growth inhibition, ACHN; settings: Homo sapiens, Renal Cancer, 48 h
Description: as §1, §2, §3

OVCAR-8 = assay: SRB growth inhibition, OVCAR-8; settings: Homo sapiens, OVCAR-8, Ovarian Cancer, 48 h
Description: as §1, §2, §3

HOP-92 = assay: SRB growth inhibition, HOP-92; settings: Homo sapiens, HOP-92, Non-Small Cell Lung Cancer, 48 h
Description: as §1, §2, §3

NCI/ADR-RES = assay: SRB growth inhibition, NCI/ADR-RES; settings: Homo sapiens, Ovarian Cancer, 48 h
Description: as §1, §2, §3

SR = assay: SRB growth inhibition, SR; settings: Homo sapiens, Leukemia, 48 h
Description: as §1, §2, §3

SF-295 = assay: SRB growth inhibition, SF-295; settings: Homo sapiens, SF-295, CNS Cancer, 48 h
Description: as §1, §2, §3

MDA-MB-231/ATCC = assay: SRB growth inhibition, MDA-MB-231/ATCC; settings: Homo sapiens, Breast Cancer, 48 h
Description: as §1, §2, §3

MCF7 = assay: SRB growth inhibition, MCF7; settings: Homo sapiens, MCF7, Breast Cancer, 48 h
Description: as §1, §2, §3

NCI-H322M = assay: SRB growth inhibition, NCI-H322M; settings: Homo sapiens, Non-Small Cell Lung Cancer, 48 h
Description: as §1, §2, §3

TK-10 = assay: SRB growth inhibition, TK-10; settings: Homo sapiens, TK-10, Renal Cancer, 48 h
Description: as §1, §2, §3

OVCAR-3 = assay: SRB growth inhibition, OVCAR-3; settings: Homo sapiens, OVCAR-3, Ovarian Cancer, 48 h
Description: as §1, §2, §3

LOX IMVI = assay: SRB growth inhibition, LOX IMVI; settings: Homo sapiens, Melanoma, 48 h
Description: as §1, §2, §3

NCI-H226 = assay: SRB growth inhibition, NCI-H226; settings: Homo sapiens, NCI-H226, Non-Small Cell Lung Cancer, 48 h
Description: as §1, §2, §3

A498 = assay: SRB growth inhibition, A498; settings: Homo sapiens, A498, Renal Cancer, 48 h
Description: as §1, §2, §3

U251 = assay: SRB growth inhibition, U251; settings: Homo sapiens, U-251, U251, CNS Cancer, 48 h
Description: as §1, §2, §3

HOP-62 = assay: SRB growth inhibition, HOP-62; settings: Homo sapiens, HOP-62, Non-Small Cell Lung Cancer, 48 h
Description: as §1, §2, §3

NCI-H460 = assay: SRB growth inhibition, NCI-H460; settings: Homo sapiens, NCI-H460, Non-Small Cell Lung Cancer, 48 h
Description: as §1, §2, §3

MDA-MB-468 = assay: SRB growth inhibition, MDA-MB-468; settings: Homo sapiens, MDA-MB-468, Breast Cancer, 48 h
Description: as §1, §2, §3

CCRF-CEM = assay: SRB growth inhibition, CCRF-CEM; settings: Homo sapiens, Leukemia, 48 h
Description: as §1, §2, §3

BT-549 = assay: SRB growth inhibition, BT-549; settings: Homo sapiens, BT-549, Breast Cancer, 48 h
Description: as §1, §2, §3

HL-60(TB) = assay: SRB growth inhibition, HL-60(TB); settings: Homo sapiens, Leukemia, 48 h
Description: as §1, §2, §3

SNB-75 = assay: SRB growth inhibition, SNB-75; settings: Homo sapiens, SNB-75, CNS Cancer, 48 h
Description: as §1, §2, §3

UO-31 = assay: SRB growth inhibition, UO-31; settings: Homo sapiens, UO-31, Renal Cancer, 48 h
Description: as §1, §2, §3

Work on `S=C(N/N=C1/CCOc2cccnc21)N1CCN(c2ccccn2)CC1` [Example 3, (Z)—N′-(2H-pyrano[3,2-b]pyridin-4(3H)-ylidene)-4-(pyridin-2-yl)piperazine-1-carbothiohydrazide] yielded a GI50 (HCC-2998) of 701 nM, a GI50 (A549/ATCC) of 155 nM and a GI50 (OVCAR-4) of 16.5 nM. It also gave a GI50 (RPMI-8226) of under 10 nM, a GI50 (OVCAR-5) of 991 nM and a GI50 (DU-145) of 345 nM. It also gave a GI50 (SK-MEL-28) of 472 nM, a GI50 (ACHN) of 196 nM and a GI50 (OVCAR-8) of 37.4 nM. It also gave a GI50 (HOP-92) of 16.7 nM, a GI50 (NCI/ADR-RES) of 37.4 nM and a GI50 (SR) of 65.5 nM. It also gave a GI50 (SF-295) of 232 nM, a GI50 (MDA-MB-231/ATCC) of 74.8 nM and a GI50 (MCF7) of under 10 nM. For the same molecule, the GI50 (NCI-H322M) was 221 nM, the GI50 (TK-10) was 748 nM and the GI50 (OVCAR-3) was under 10 nM. For the same molecule, the GI50 (LOX IMVI) was 25.1 nM, the GI50 (NCI-H226) was 338 nM and the GI50 (A498) was 192 nM. It also gave a GI50 (U251) of 26.5 nM, a GI50 (HOP-62) of 37.2 nM and a GI50 (NCI-H460) of 38.8 nM. It also gave a GI50 (MDA-MB-468) of under 10 nM, a GI50 (CCRF-CEM) of under 10 nM and a GI50 (BT-549) of 71.8 nM. It also gave a GI50 (HL-60(TB)) of 14.9 nM, a GI50 (SNB-75) of 1080 nM and a GI50 (UO-31) of 132 nM.
